Experimental data reported in ChEMBL document CHEMBL1133281, “Synthesis and HIV-1 integrase inhibitory activities of caffeoylglucosides” (Bioorg Med Chem Lett, 2000).

The compounds below were run against Human immunodeficiency virus type 1 integrase (Human immunodeficiency virus 1, UniProt Q7ZJM1) (assay: Inhibitory activity against HIV-1 integrase).
Sequence of Human immunodeficiency virus type 1 integrase (Q7ZJM1 whole entry): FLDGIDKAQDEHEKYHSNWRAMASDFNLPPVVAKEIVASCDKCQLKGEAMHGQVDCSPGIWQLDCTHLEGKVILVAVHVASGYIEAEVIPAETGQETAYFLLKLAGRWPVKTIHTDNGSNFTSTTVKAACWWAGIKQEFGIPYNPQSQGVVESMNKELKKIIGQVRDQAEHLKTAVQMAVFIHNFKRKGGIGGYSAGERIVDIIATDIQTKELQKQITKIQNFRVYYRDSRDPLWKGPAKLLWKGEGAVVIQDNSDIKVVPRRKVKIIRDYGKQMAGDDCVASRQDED

Structure (SMILES)	IC50 [µM]
CO[C@H]1O[C@H](COC(=O)/C=C/c2ccc(O)c(O)c2)[C@@H](OC(=O)/C=C/c2ccc(O)c(O)c2)[C@H](OC(=O)/C=C/c2ccc(O)c(O)c2)[C@H]1OC(=O)/C=C/c1ccc(O)c(O)c1	> 119
CO[C@@H]1O[C@H](COC(=O)/C=C/c2ccc(O)c(O)c2)[C@@H](O)[C@H](OC(=O)/C=C/c2ccc(O)c(O)c2)[C@H]1O	35.1
CO[C@@H]1O[C@H](COC(=O)/C=C/c2ccc(O)c(O)c2)[C@@H](O)[C@H](O)[C@H]1OC(=O)/C=C/c1ccc(O)c(O)c1	30.5
C[C@@H]1O[C@@H](O[C@@H]2[C@@H](O)[C@H](OCCc3ccc(O)c(O)c3)O[C@H](CO)[C@H]2OC(=O)/C=C/c2ccc(O)c(O)c2)[C@H](O)[C@H](O)[C@H]1O [ACETOSIDE]	7.8
COc1cc(/C=C/C(=O)CC(=O)/C=C/c2ccc(O)c(OC)c2)ccc1O [CURCUMIN]	57.5
CO[C@@H]1O[C@H](COC(=O)/C=C/c2ccc(O)c(O)c2)[C@@H](OC(=O)/C=C/c2ccc(O)c(O)c2)[C@H](OC(=O)/C=C/c2ccc(O)c(O)c2)[C@H]1OC(=O)/C=C/c1ccc(O)c(O)c1	89.6
COC1O[C@H](CO)[C@@H](O)[C@H](OC(=O)c2cc(O)c(O)c(O)c2)[C@H]1OC(=O)c1cc(O)c(O)c(O)c1 (stereo partly specified)	5.4

The remaining lines, values ahead:

IC50 [µM]	Structure (SMILES)
82.4	CO[C@H]1O[C@H](COC(=O)/C=C/c2ccc(O)c(O)c2)[C@@H](O)[C@H](OC(=O)/C=C/c2ccc(O)c(O)c2)[C@H]1O
29.1	CO[C@H]1O[C@H](CO)[C@@H](O)[C@H](OC(=O)/C=C/c2ccc(O)c(O)c2)[C@H]1OC(=O)/C=C/c1ccc(O)c(O)c1
31.8	CO[C@@H]1O[C@H](CO)[C@@H](O)[C@H](OC(=O)/C=C/c2ccc(O)c(O)c2)[C@H]1OC(=O)/C=C/c1ccc(O)c(O)c1
70	CO[C@H]1O[C@H](COC(=O)/C=C/c2ccc(O)c(O)c2)[C@@H](O)[C@H](O)[C@H]1OC(=O)/C=C/c1ccc(O)c(O)c1
